The source of these data is patent US10968222B2, “2-azabicyclo hexane JAK inhibitor compound” (THERAVANCE BIOPHARMA R&D IP, LLC, priority 2018, dated 2021).

Data set [1] deals with BEAS-2B human lung epithelial cells. Nature of the data set: CellTiter-Glo cell viability/cytotoxicity assay. Type of data set: cell-based. Particulars: BEAS-2B cells; 48 h; 15% inhibition threshold. The procedure: A CellTiter-Glo luminescent cell viability/cytotoxicity assay was carried out in BEAS-2B human lung epithelial cells (ATCC) under the normal growth condition.
Cells were grown at 37° C. in a 5% CO2 humidified incubator in 50% DMEM/50% F-12 medium (Life Technologies) supplemented with 10% FBS (Hyclone), 100 U/mL penicillin, 100 μg/mL streptomycin (Life Technologies), and 2 mM GlutaMAX (Life Technologies). On day 1 of the assay, cells were seeded at a 500 cells/well density in white 384-well tissue culture plates (Corning) with 25 μL medium, and were allowed to adhere overnight in the incubator. On day 2 of the assay, 5 μL of medium containing dose-responses of test compounds was added, and incubated at 37° C. for 48 h. 30 μL of CellTiter-Glo detection solution (Promega) was subsequently added, mixed on an orbital shaker for 5 min, and incubated for additional 10 min before being read on the EnVision reader. Luminescence signals were recorded and percent DMSO control values were calculated.
For dose-response analysis, percent DMSO control data were plotted vs. compound concentrations to derive dose-response curves by line connecting each data point. The concentration at which each curve crosses the 15% inhibition threshold is defined as CC15.

The target of data set [2] is T1, PLK4 (Homo sapiens, UniProt O00444).
T1 construct: made in house; host or cells: E. coli BL21-derived host (T7 phage) or HEK-293 cells
Nature of the data set: Kinome screen, PLK4. Type of data set: binding. Particulars: screened at 1 μM. As to the method: (§1) Compounds 1 and C-1 were screened against other kinases to evaluate their selectivity profile.
(§2) Kinase-tagged T7 phage strains were grown in parallel in 24-well blocks in an E. coli host derived from the BL21 strain. E. coli were grown to log-phase and infected with T7 phage from a frozen stock (multiplicity of infection=0.4) and incubated with shaking at 32° C. until lysis (90-150 minutes). The lysates were centrifuged (6,000×g) and filtered (0.2 μm) to remove cell debris. The remaining kinases were produced in HEK-293 cells and subsequently tagged with DNA for qPCR detection.
(§3) Streptavidin-coated magnetic beads were treated with biotinylated small molecule ligands for 30 minutes at room temperature to generate affinity resins for kinase assays. The liganded beads were blocked with excess biotin and washed with blocking buffer (SeaBlock (Pierce), 1% BSA, 0.05% Tween 20, 1 mM DTT) to remove unbound ligand and to reduce non-specific phage binding. Binding reactions were assembled by combining kinases, liganded affinity beads, and test compounds in 1× binding buffer (20% SeaBlock, 0.17×PBS, 0.05% Tween 20, 6 mM DTT). Test compounds were prepared as 40× stocks in 100% DMSO and directly diluted into the assay. All reactions were performed in polypropylene 384-well plates in a final volume of 0.04 ml. […] The kinase concentration in the eluates was measured by qPCR. […]

Data set [3] has as its target T2, CDK7 (Homo sapiens, UniProt P50613).
T2 construct: made in house; host or cells: E. coli BL21-derived host (T7 phage) or HEK-293 cells
Briefly: Kinome screen, CDK7. Particulars: screened at 1 μM. Type of data set: binding. As to the method: as §1, §2, §3

The subject of data set [4] is IL-2/anti-CD3 stimulated STAT5 phosphorylation in CD4+ T cells in human PBMCs. Nature of the data set: Inhibition of IL-2 stimulated pSTAT5 in CD4+ T cells. Type of data set: cell-based. The conditions noted are these: 0.5 h, 30 min stimulation, flow cytometry, read-out: pIC50, inhibition of IL-2 stimulated pSTAT5 in CD4+ T cells (converted). The procedure:
The potency of the test compound for inhibition of interleukin-2 (IL-2)/anti-CD3 stimulated STAT5 phosphorylation was measured in CD4-positive (CD4+) T cells in human peripheral blood mononuclear cells (PBMCs) isolated from human whole blood (Stanford Blood Center) using flow cytometry. Because IL-2 signals through JAK, this assay provides a measure of JAK cellular potency.
CD4+ T cells were identified using a […] (PE) conjugated anti-CD4 antibody (Clone RPA-T4, BD Biosciences), while an Alexa Fluor 647 conjugated anti-pSTAT5 antibody (pY694, Clone 47, BD Biosciences) was used to detect STAT5 phosphorylation. […]
(2) After cytokine stimulation, cells were fixed with pre warmed fix solution (200 μL; BD Biosciences) for 10 min at 37° C., 5% CO2, washed twice with DPBS buffer (1 mL, Life Technologies), and resuspended in ice cold Perm Buffer III (1000 μL, BD Biosciences) for 30 min at 4° C. […] After incubation, cells were washed twice in FACS buffer before being analyzed using a LSRII flow cytometer (BD Biosciences). To determine the inhibitory potency of the test compound in response to IL-2/anti-CD3, the median fluorescent intensity (MFI) of pSTAT5 was measured in CD4+ T cells. IC50 values were determined from analysis of the inhibition curves of MFI vs compound concentration.
Data are expressed as pIC50 (negative decadic logarithm IC50) values.
(In flow cytometry, cells or beads pass a laser one at a time.)

The test system of data set [5] is IL-6 stimulated CCL2 (MCP-1) production in human PBMCs. Nature of the data set: Inhibition of IL-6 stimulated CCL2 (MCP-1) in human PBMCs. The conditions noted are these: PBMC, 48 h stimulation, ELISA, read-out: pIC50, inhibition of IL-6 stimulated CCL2 (MCP-1) (converted). Type of data set: cell-based. As to the method:
The potency of the test compound for inhibition of interleukin-6 (IL-6) stimulated CCL2 (MCP-1) production was measured in human peripheral blood mononuclear cells (PBMCs) isolated from human whole blood (Stanford Blood Center). Because IL-6 signals through JAK, this assay provides a distal measure of JAK cellular potency.
(1) The protocol of Assay 4 paragraph (1) was followed up to the incubation with test compounds. In the present assay, after test compounds were added to wells and incubated, IL-6 (R&D Systems; final concentration 10 ng/ml) in pre-warmed assay media (50 μL) was added.
(2) After cytokine stimulation for 48 h, cells were centrifuged at 500 g for 5 min and supernatants were removed and frozen at −80° C. To determine the inhibitory potency of the test compound in response to IL-6, supernatant CCL2 (MCP-1) concentrations were measured via ELISA (R&D Systems). IC50 values were determined from analysis of the inhibition curves of concentration of CCL2/MCP-1 vs compound concentration. Data are expressed as pIC50 (negative decadic logarithm IC50) values.
On the technique in general: An ELISA detects its analyte on a solid surface through an enzyme-linked reagent.

For data set [6], the target named is T3, SLK (Homo sapiens, UniProt Q9H2G2).
T3 construct: made in house; host or cells: E. coli BL21-derived host (T7 phage) or HEK-293 cells
Nature of the data set: Kinome screen, SLK. Type of data set: binding. The conditions noted are these: screened at 1 μM. As to the method: as §1, §2, §3

Broadly, the inhibition is the drop in the measured response relative to a control, in per cent.

T3 sequence (Q9H2G2 whole entry): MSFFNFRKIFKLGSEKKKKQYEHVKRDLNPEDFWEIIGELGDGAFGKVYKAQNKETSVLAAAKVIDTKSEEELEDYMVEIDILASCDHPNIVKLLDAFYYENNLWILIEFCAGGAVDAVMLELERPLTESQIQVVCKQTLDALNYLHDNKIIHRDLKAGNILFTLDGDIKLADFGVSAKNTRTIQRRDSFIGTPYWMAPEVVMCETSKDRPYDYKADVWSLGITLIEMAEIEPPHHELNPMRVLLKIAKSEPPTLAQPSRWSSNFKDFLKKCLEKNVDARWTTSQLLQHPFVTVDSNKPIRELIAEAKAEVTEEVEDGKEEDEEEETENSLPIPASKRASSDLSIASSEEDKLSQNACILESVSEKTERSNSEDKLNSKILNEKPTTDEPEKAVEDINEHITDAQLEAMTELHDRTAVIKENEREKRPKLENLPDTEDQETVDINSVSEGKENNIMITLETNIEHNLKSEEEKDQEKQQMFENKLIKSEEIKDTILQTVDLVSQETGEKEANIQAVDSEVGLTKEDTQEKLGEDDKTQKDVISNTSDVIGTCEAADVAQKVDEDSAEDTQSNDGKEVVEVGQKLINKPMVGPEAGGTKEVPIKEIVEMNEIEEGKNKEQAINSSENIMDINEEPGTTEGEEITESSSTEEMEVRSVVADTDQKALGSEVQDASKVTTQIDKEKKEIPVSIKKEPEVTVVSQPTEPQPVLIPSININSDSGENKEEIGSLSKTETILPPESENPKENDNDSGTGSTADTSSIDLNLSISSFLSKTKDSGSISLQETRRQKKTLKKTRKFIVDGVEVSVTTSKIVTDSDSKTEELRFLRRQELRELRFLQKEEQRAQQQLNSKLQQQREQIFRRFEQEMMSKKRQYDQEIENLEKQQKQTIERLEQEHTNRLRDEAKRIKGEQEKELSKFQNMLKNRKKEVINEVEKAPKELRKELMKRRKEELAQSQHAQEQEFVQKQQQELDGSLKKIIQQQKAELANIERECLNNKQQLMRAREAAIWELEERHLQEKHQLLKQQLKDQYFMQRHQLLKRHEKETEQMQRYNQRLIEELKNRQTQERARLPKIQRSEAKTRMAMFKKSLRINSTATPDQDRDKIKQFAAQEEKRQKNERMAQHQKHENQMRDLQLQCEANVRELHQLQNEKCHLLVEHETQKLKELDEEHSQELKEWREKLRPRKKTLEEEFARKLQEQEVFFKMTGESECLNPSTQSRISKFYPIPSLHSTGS
T2 sequence (P50613 whole entry): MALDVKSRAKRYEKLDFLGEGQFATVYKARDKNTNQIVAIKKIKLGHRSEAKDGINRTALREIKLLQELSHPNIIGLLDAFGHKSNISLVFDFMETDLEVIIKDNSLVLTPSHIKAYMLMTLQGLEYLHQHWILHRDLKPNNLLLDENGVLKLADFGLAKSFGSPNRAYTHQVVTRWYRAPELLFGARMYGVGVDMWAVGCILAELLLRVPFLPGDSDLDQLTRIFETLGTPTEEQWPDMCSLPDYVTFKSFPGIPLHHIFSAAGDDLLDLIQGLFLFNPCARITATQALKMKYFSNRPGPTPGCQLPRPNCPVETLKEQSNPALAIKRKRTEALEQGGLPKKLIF
T1 sequence (O00444 whole entry): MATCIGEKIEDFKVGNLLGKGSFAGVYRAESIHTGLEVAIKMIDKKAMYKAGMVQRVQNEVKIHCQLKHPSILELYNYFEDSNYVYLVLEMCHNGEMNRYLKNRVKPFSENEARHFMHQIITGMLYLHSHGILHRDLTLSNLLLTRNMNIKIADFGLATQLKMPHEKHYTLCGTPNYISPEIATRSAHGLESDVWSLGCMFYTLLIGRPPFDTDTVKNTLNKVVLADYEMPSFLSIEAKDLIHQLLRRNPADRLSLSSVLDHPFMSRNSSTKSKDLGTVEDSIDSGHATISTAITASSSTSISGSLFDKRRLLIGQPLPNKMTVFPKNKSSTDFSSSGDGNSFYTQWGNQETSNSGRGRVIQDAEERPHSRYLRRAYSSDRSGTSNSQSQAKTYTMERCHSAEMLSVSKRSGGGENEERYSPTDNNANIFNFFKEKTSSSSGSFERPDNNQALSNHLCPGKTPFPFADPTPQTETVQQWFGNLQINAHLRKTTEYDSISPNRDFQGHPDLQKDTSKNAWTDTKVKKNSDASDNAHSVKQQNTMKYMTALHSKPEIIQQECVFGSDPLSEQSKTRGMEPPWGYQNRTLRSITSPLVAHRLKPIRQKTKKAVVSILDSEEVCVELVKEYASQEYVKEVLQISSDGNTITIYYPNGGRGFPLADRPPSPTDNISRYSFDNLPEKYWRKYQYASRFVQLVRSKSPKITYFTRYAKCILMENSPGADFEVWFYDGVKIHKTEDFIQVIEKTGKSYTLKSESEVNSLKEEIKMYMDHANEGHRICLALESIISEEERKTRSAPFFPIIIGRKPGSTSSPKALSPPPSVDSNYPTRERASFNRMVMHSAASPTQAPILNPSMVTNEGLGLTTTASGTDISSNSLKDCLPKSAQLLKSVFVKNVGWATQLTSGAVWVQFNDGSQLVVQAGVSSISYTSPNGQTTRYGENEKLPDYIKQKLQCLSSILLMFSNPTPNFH

In the case of `CCc1cc(O)c(F)cc1-c1cc(F)c2c(-c3nc4c([nH]3)CCN(C(=O)[C@]35C[C@H]3CCN5)C4)n[nH]c2c1` [Compound 1, (1S,5R)-2-azabicyclo[3.1.0]hexan-1-yl(2-(6-(2-ethyl-5-fluoro-4-hydroxyphenyl)-4-fluoro-1H-indazol-3-yl)-6,7-dihydro-3H-imidazo[4,5-c]pyridin-5(4H)-yl)methanone], the CC15 in data set [1] was > 10 µM. For the same compound, the pCC15 in data set [1] is < 5. For the same compound, the inhibition at 1 µM in data set [2] was 39%; in data set [3] it was 82%; in data set [6], 100%. In addition, the IC50 in data set [4] is 20 nM; in data set [5], 316 nM.
